# From patent publication US5776914A, “Prevention of hemolysis” (The Trustees of the University of Pennsylvania, priority 1994, dated 1998)
# Experiments:
# [1] = test system: erythrocytes; format: cell-based, human
# Experimental: FIG. 2 graphically illustrates the hemolytic effects of two hydroxyalkyl substituted cyclodextrins, 2-hydroxyethyl-β-cyclodextrin (β-CD-4-Et) and 2-hydroxypropyl-β-cyclodextrin (β-CD-4Pr) in comparison to the polyanionically substituted cyclodextrin β-cyclodextrin-tetradecasulfate sodium (β-CD-14s) on fresh human blood to which about 0.47% sodium citrate was added.
# The first sample contained erythrocytes and isotonic saline. This first sample served as a zero blank.
# [2] = solubility limit; format: physicochemical; details: 20° C.
# [3] = test system: erythrocytes; details: cited from earlier work; for concentration above/at which hemolysis is induced: background statement; for hemolytic activity (in words): known in the art / literature
# [4] = test system: erythrocytes; details: 1.0 mM β-cyclodextrin, simultaneous use (Uekama 1981); cited from earlier work
# [5] = test system: erythrocytes; experiment: inhibition of hemolysis induced by hemolytic agents (CPZ, CD, Pr-OH-CD, clay); details: for Hemolysis: 15 min
# Experimental: Unless explicitly stated otherwise, hemolytic activity was measured by the procedure described by I. Jodal et al., Proceedings of the Fourth International Symposium on Cyclodextrins, O. Huber and J. Szejtli, Eds., 421-425, Kluwer Academic Publishers, Boston (1988), which is incorporated herein by reference.
# For each of the examples which follow, sodium citrate was added about (to about 0.47%) to fresh human blood collected from healthy laboratory personnel. After centrifugation (10 min., 400×G) to separate the erythrocytes from other blood components, the supernatant erythrocyte fraction was recentrifuged and washed twice with isotonic phosphate buffer. The erythrocytes were diluted with that buffer to a 10% hematocrit value to obtain an erythrocyte suspension. Test material and erythrocytes were mixed as follows: about 3.6, 1.8, and 0.9 ml of a test material solution was mixed with about 0.4, 0.2 and 0.1 ml, respectively, of erythrocyte suspension and then incubated for about 15 minutes each at about 37° C., followed by two centrifugations for two minutes each at about 4000×G The resulting supernatants were measured for absorbance at 543 nm using a Gilford spectrophotometer. The percent of hemolysis was determined by reference to two control samples. The first sample contained erythrocytes and isotonic saline. This first sample served as a zero blank. The second sample was identical to the first but had been sonicated to provide a value for 100% hemolysis.
# [6] = in vitro; format: cell-based, human; details: human, erythrocytes
# [7] = test system: erythrocytes; experiment: in vitro; format: cell-based, human
compound,measurement,setting,value
2-hydroxyethyl-β-cyclodextrin [β-CD-4-Et],hemolytic effect (FIG. 2),[1],induced hemolysis at low concentrations
"OC[C@H]1O[C@@H]2O[C@H]3[C@H](O)[C@@H](O)[C@@H](O[C@H]4[C@H](O)[C@@H](O)[C@@H](O[C@H]5[C@H](O)[C@@H](O)[C@@H](O[C@H]6[C@H](O)[C@@H](O)[C@@H](O[C@H]7[C@H](O)[C@@H](O)[C@@H](O[C@H]8[C@H](O)[C@@H](O)[C@@H](O[C@H]1[C@H](O)[C@H]2O)O[C@@H]8CO)O[C@@H]7CO)O[C@@H]6CO)O[C@@H]5CO)O[C@@H]4CO)O[C@@H]3CO [β-CD, β-cyclodextrin]",solubility,[2],13 to 18 mg/mL
same,concentration above/at which hemolysis is induced,[3],2000 to 3000 µM
same,onset of hemolysis (concentration inducing hemolysis),[1]; human,about 6 mg/ml
same,inhibition of hemolytic action of chlorpromazine,[4],inhibits the hemolytic action
same,Hemolysis,"[5]; CPZ 0.5 mg/ml (1.5 mM) + CD 5.0 mg/ml (4.0 mM), molar ratio CD/CPZ 2.7 (Example 20)",6.5
same,Hemolysis,"[5]; CPZ 0.75 mg/ml (2.25 mM) + CD 7.5 mg/ml (6.0 mM), molar ratio CD/CPZ 2.7 (Example 21)",21
same,Hemolysis,"[5]; CPZ 1.0 mg/ml (3.0 mM) + CD 10 mg/ml (8.0 mM), molar ratio CD/CPZ 2.7 (Example 22)",80
same,protection from hemolysis by CPZ (in words),[5]; Example 20: CPZ 0.5 mg/ml + CD 5.0 mg/ml,considerable protection
same,protection from hemolysis by CPZ (in words),[5]; Examples 21 and 22: CPZ 0.75-1.0 mg/ml + CD 7.5-10 mg/ml,protection is lost
2-hydroxypropyl-β-cyclodextrin [β-CD-4Pr],hemolytic effect (FIG. 2),[1],induced hemolysis at low concentrations
β-cyclodextrin-tetradecasulfate sodium [β-CD-14s],hemolytic effect (FIG. 2),[1],no undesirable hemolytic properties
same,reduction of the level of hemolysis,"[5]; CD about 15 mg/ml, β-CD-14s 50 mg/ml",about 41%
same,fold reduction of hemolysis,"[5]; CD about 15 mg/ml, β-CD-14s 150 mg/ml",about 30 fold
same,hemolytic activity of the composition with CPZ (in words),[5]; Example 23: CPZ 1.0 mg/ml + 50 mg/ml CDS,substantially reduced hemolytic activity
same,hemolytic effect (in words),"[5]; about 70 mg/ml CDS, about 2.0 mg/ml CPZ",negligible hemolytic effect
same,"fold improvement, that is, reduction in hemolysis","[5]; hydroxypropyl cyclodextrin 75 mg/ml, β-CD-14s 100 mg/ml",at least 20 fold
"CN(C)CCCN1c2ccccc2Sc2ccc(Cl)cc21 [CPZ, chloropromazine]",concentration above/at which hemolysis is induced,[3],> 500 µM
same,hemolytic activity (in words),[3],hemolysis inducing agents
same,hemolysis at 0.25 h,[6]; 0.5 mg/ml of CPZ,~100%
same,hemolysis at 0.25 h,[6]; CPZ 0.15 mg/ml (Example 1),4.9%
same,hemolysis at 0.25 h,[6]; CPZ 0.25 mg/ml (Example 2),7%
same,hemolysis at 0.25 h,[6]; CPZ 0.30 mg/ml (Example 3),88%
same,hemolysis at 0.25 h,[6]; CPZ 0.40 mg/ml (Example 4),96%
same,hemolysis (in words),[7]; concentrations approaching 0.5 mg/ml of CPZ,complete hemolysis
same,hemolysis (in words),"[7]; without CDS, about one-fifth of 2.0 mg/ml CPZ (Example 4)",substantially complete hemolysis
CC(C(=O)O)c1ccc(-c2ccccc2)c(F)c1 (stereo not shown) [flurbiprofen],hemolytic activity (in words),[3],hemolysis inducing agents
C=C[C@]1(C)C[C@@H](OC(=O)CSCCN(CC)CC)[C@]2(C)[C@H](C)CC[C@]3(CCC(=O)[C@H]32)[C@@H](C)[C@@H]1O [tiamulin],hemolytic activity (in words),[3],hemolysis inducing agents
